BindingDB's records for patent US11440923 (2022)
pIC50: −log10 of the molar value.

Target: T1, Induced myeloid leukemia cell differentiation protein Mcl-1 [K194A,K197A,R201A] (Homo sapiens, UniProt Q07820, K194A/K197A/R201A)
T1 construct: gene MCL1
Test: Protein-Protein Interaction Assay: MCL-1/Noxa BH3 Peptide (MCL-1 Assay)
Protocol: The dose-dependent inhibition by the compounds described in this invention of the interaction between MCL-1 and the BH3 domain of Noxa (both human) was determined using a steady state binding competition assay with time-resolved fluorescence energy transfer (TR-FRET) readout. […] The MBP-MCL-1 was purchased from Beryllium (Bedford, Mass., USA). […] The Noxa BH3-derived peptide can be obtained from e.g. Biosyntan (Berlin, Germany).

T1 sequence (Q07820 whole entry K194A/K197A/R201A, looked up): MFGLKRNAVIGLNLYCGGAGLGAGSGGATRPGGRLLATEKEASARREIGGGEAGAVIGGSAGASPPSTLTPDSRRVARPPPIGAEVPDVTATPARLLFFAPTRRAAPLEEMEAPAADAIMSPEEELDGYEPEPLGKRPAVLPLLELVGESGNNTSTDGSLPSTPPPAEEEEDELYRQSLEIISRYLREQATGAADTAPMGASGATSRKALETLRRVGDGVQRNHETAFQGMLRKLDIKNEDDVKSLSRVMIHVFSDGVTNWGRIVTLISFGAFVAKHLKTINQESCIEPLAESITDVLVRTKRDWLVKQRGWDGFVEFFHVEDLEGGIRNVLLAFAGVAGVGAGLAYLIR

Row | Compound | pIC50
1 | CCc1c2c(nn1C)C(CCC1CCOCC1)OCCCCn1c(C(=O)O)c(CCCOc3cccc4cc(F)ccc34)c3ccc(Cl)c-2c31 (racemic) [US11440923, Example 60] | 9.16
2 | CCc1c2c(nn1C)C1CCCCN1CCCCn1c(C(=O)O)c(CCCOc3cccc4ccccc34)c3ccc(Cl)c-2c31 (racemic) [US11440923, Example 102] | 9.03
3 | CCc1c2c(nn1C)C(CCN1CCOCC1)OCCCCn1c(C(=O)O)c(CCCOc3cccc4cc(F)ccc34)c3ccc(Cl)c-2c31 (single isomer, unassigned) [US11440923, Example 23] | 9.20
4 | CCc1c2c(nn1C)C(CCC1CCOCC1)OCCCCn1c(C(=O)O)c(CCCOc3cccc4cc(F)ccc34)c3ccc(Cl)c-2c31 (single isomer, unassigned) [US11440923, Example 63] | 9.06
5 | CCc1c2c(nn1C)C(CCN1CC(F)(F)C1)OCCCCn1c(C(=O)O)c(CCCOc3cccc4cc(F)ccc34)c3ccc(Cl)c-2c31 (single isomer, unassigned) [US11440923, Example 78] | 9.38
6 | CCC1OCCCCn2c(C(=O)O)c(CCCOc3cccc4ccccc34)c3ccc(Cl)c(c32)-c2c1nn(C)c2C (single isomer, unassigned; form 1) [US11440923, Example 29] | 9.00
7 | CCc1c2c(nn1C)C(C(F)(F)F)OCCCCn1c(C(=O)O)c(CCCOc3cccc4ccccc34)c3ccc(Cl)c-2c31 (single isomer, unassigned; form 1) [US11440923, Example 33] | 8.68
8 | Cc1c2c(nn1C)C(C1CC1)OCCCCn1c(C(=O)O)c(CCCOc3cccc4ccccc34)c3ccc(Cl)c-2c31 (single isomer, unassigned; form 1) [US11440923, Example 35] | 9.14
9 | CCc1c2c(nn1C)C(C1CC1)OCCCCn1c(C(=O)O)c(CCCOc3cccc4cc(F)ccc34)c3ccc(Cl)c-2c31 (single isomer, unassigned; form 1) [US11440923, Example 39] | 9.14
10 | CCc1c2c(nn1C)C(CCOC)OCCCCn1c(C(=O)O)c(CCCOc3cccc4cc(F)ccc34)c3ccc(Cl)c-2c31 (single isomer, unassigned; form 1) [US11440923, Example 42] | 9.48
11 | CCc1c2c(nn1C)C(CC(C)(C)O)OCCCCn1c(C(=O)O)c(CCCOc3cccc4cc(F)ccc34)c3ccc(Cl)c-2c31 (single isomer, unassigned; form 1) [US11440923, Example 53] | 9.39
12 | CCc1c2c(nn1C)C(CCC(C)(C)O)OCCCCn1c(C(=O)O)c(CCCOc3cccc4cc(F)ccc34)c3ccc(Cl)c-2c31 (single isomer, unassigned; form 1) [US11440923, Example 75] | 9.43
13 | CCC1OCCCCn2c(C(=O)O)c(CCCOc3cccc4ccccc34)c3ccc(Cl)c(c32)-c2c1nn(C)c2C (single isomer, unassigned; form 2) [US11440923, Example 30] | 6.70
14 | CCc1c2c(nn1C)C(C(F)(F)F)OCCCCn1c(C(=O)O)c(CCCOc3cccc4ccccc34)c3ccc(Cl)c-2c31 (single isomer, unassigned; form 2) [US11440923, Example 34] | 6.43
15 | Cc1c2c(nn1C)C(C1CC1)OCCCCn1c(C(=O)O)c(CCCOc3cccc4ccccc34)c3ccc(Cl)c-2c31 (single isomer, unassigned; form 2) [US11440923, Example 36] | 6.55
16 | CCc1c2c(nn1C)C(C1CC1)OCCCCn1c(C(=O)O)c(CCCOc3cccc4cc(F)ccc34)c3ccc(Cl)c-2c31 (single isomer, unassigned; form 2) [US11440923, Example 40] | 7.32
17 | CCc1c2c(nn1C)C(CCOC)OCCCCn1c(C(=O)O)c(CCCOc3cccc4cc(F)ccc34)c3ccc(Cl)c-2c31 (single isomer, unassigned; form 2) [US11440923, Example 43] | 7.06
18 | CCc1c2c(nn1C)C(CC(C)(C)O)OCCCCn1c(C(=O)O)c(CCCOc3cccc4cc(F)ccc34)c3ccc(Cl)c-2c31 (single isomer, unassigned; form 2) [US11440923, Example 54] | 7.33
19 | CCc1c2c(nn1C)C(CCC(C)(C)O)OCCCCn1c(C(=O)O)c(CCCOc3cccc4cc(F)ccc34)c3ccc(Cl)c-2c31 (single isomer, unassigned; form 2) [US11440923, Example 76] | 7.05
20 | Cc1c2c(nn1C)C(CCN1CCOCC1)OCCCCn1c(C(=O)O)c(CCCOc3cccc4cc(F)ccc34)c3ccc(Cl)c-2c31 (configuration not stated) [US11440923, Example 16] | 8.92
21 | Cc1c2c(nn1C)C(CCN1CCOCC1)OCCCCn1c(C(=O)O)c(CCCOc3cccc4cc(F)ccc34)c3ccc(F)c-2c31 (configuration not stated) [US11440923, Example 19] | 9.10
22 | CCc1c2c(nn1C)[C@@H](CCN1CCOCC1)OCCCCn1c(C(=O)O)c(CCCOc3cccc4cc(F)ccc34)c3ccc(Cl)c-2c31 [US11440923, Example 48] | 8.44
